Here are results for four compounds from article PMC6983109, “Efficient Synthesis of Purine Nucleoside Analogs by a New Trimeric Purine Nucleoside Phosphorylase from Aneurinibacillus migulanus AM007” (Molecules, 2019).

The target of one test is T1, AmPNP (Aneurinibacillus migulanus, UniProt A0A3G5E8S8).
T1 construct: full-length ORF 813 bp, 270 residues; N-terminal 6*His tag (pET-28a(+), Nhe I/BamH I), E. coli BL21(DE3), Ni2+ purified; subunit ~29 kDa, native ~87 kDa, trimer
Briefly: phosphorolysis, HPLC. Type of test: biochemical. The settings on record: 10 mM sodium phosphate buffer pH 8.0 (phosphate co-substrate), 50 °C, 0.5–5 mM substrate. From the text: phosphorolysis, HPLC on AmPNP

Test [1] addresses purine nucleoside phosphorylase from Aneurinibacillus migulanus AM007 (Aneurinibacillus migulanus AM007). Briefly: SEC; Superdex 200 Increase 10/300 GL on an AKTA pure system, against standard proteins; 0.01 M phosphate buffer, 0.14 M NaCl, pH 8.0; AmPNP at 2 mg/mL; 0.3 mL/min; native mass about 87 kDa compared with about 29 kDa subunit on SDS-PAGE. For orientation: In gel filtration, larger molecules generally elute earlier.

Turning to `Nc1nc2c(ncn2[C@@H]2O[C@H](CO)[C@@H](O)[C@H]2O)c(=O)[nH]1` [Guanosine], the Michaelis-Menten constant (Km) on AmPNP amounted to 1.16 mM.

As to `OC[C@H]1O[C@@H](n2cnc3c(O)ncnc32)[C@H](O)[C@@H]1O` [Inosine], the Km at AmPNP was 5.3 mM.

Consider “purine nucleoside phosphorylase from Aneurinibacillus migulanus AM007 (enzyme)”, for which the stoichiometry N in test [1] was 3.

With `Nc1ncnc2c1ncn2[C@@H]1O[C@H](CO)[C@@H](O)[C@H]1O` [Adenosine], the Michaelis constant (Km) on AmPNP worked out at 1.45 mM.

For orientation: Km means the concentration of substrate that gives half-maximal velocity. The stoichiometry N is a count of units in the complex or per binding partner.
